# Data from patent US6531148B1, “Therapeutic agents” (Takara Shuzo Co., Ltd., priority 1998, dated 2003).
# “Also recorded” adds a separate entry of the source. Like-named read-outs stand apart in the source and are kept apart here.
# Tests used:
# [1] = system: Ehrlich's carcinoma cells; test: Carcinostatic activity test, Ehrlich's carcinoma; format: in vivo, mice; details: for carcinostatic activity: mouse, in vivo; for 30-day survival number: 6 mice per group, control 0; for Average days of survival: 30 days observation, control 14.3
# Protocol: (2) Ehrlich's carcinoma cells were administered to 18 female ddY mice (5 weeks old, weighing about 25 g) intraperitoneally (1.2×10^6 cells/mouse). Observation was continued for 30 days. The average days of survival, the prolongation rate and the 30-day survival number were then calculated. Mice were divided into 3 group each consisting of 6 mice. One was a control group, and other two groups received DGE at 2 mg/kg and 20 mg/kg, respectively. DGE was intraperitoneally administered for 4 days from the day after the administration of cancer.
# [2] = system: NO production induced by LPS and IFN-γ in RAW264.7 cells; test: NO production inhibition test; format: cell-based; details: for inhibition of NO production induced by LPS and IFN-γ: NO2− in the medium, Griess' reagent
# Protocol: (1) RAW264.7 cells (ATCC TIB 71) were suspended in Dulbecco's modified Eagle's medium (Bio Whittaker, 12-917F) without phenol red containing 10% fetal bovine serum (Gibco) and 2 mM L-glutamine (Life Technologies Oriental, 25030-149) at a concentration of 3×10^5 cells/ml. 500 μl of the suspension was added to each well of a 48-well microtiter plate and the plate was incubated at 37° C. for 12 hours in the presence of 5% CO2. 10 μl of an aqueous solution containing 25 μg/ml lipopolysaccharide (LPS, Sigma, L-2012) and 500 U/ml interferon-γ (IFN-γ, sold by Cosmobio, GZM-MG-IFN), and 10 μl of the aqueous DGE solution at 250 or 500 μM were added to the well. The plate was incubated for additional 12 hours. The concentration of NO2^− produced by oxidation of NO in the medium was then measured. As control groups, a group to which LPS or IFN-γ was not added and a group to which DGE was not added were provided.
# (§1) After cultivation, 100 μl of 4% Griess' reagent (Sigma, G4410) was added to 100 μl of the medium, and the mixture was allowed to stand for 15 minutes at room temperature. The absorbance at 490 nm was then measured. NO2^− concentration in the medium was calculated with reference to a calibration curve prepared by using NaNO2 at a given concentration dissolved in the same medium as that described above. All of the measurements were carried out in triplicate.
# (2) RAW264.7 cells were suspended in Dulbecco's modified Eagle's medium without phenol red containing 10% fetal bovine serum and 2 mM L-glutamine at a concentration of 3×10^5 cells/ml. 500 μl of the suspension was placed in each well of a 48-well microtiter plate. […] The concentration of NO2^− produced by oxidation of NO in the medium was measured. […]
# as §1, with “reagent” for “reagent (Sigma, G4410)”, “culture supernatant,” for “medium,”, “above.” for “above. All of the measurements were carried out in triplicate.”
# RAW264.7 cells were suspended in Dulbecco's modified Eagle's medium without phenol red containing 10% fetal bovine serum and 2 mM L-glutamine at a concentration of 3×10^5 cells/ml. […] The concentration of NO2^− produced by oxidation of NO in the medium was then measured. […]
# as §1, with “above.” for “above. All of the measurements were carried out in triplicate.”
# [3] = system: Salmonella typhimulium TA1535/pSK1002; format: cell-based
# Protocol: An antimutagenic activity was determined according to a method for detecting an environmental mutagen by the umu test, which can determine mutagenicity with reference to the β-galactosidase activity (Mutation Research, 147: 219 (1985)). Briefly, 25 μl of mutagen [mitomycin C (a DNA crosslinker) at 10 μg/ml or 4-nitroquinoline-1-oxide (NQO, a DNA methylating agent) at 7 μg/ml] was added to 50 μl of DGE solution at a varying concentration (1.0, 5.0, 10 or 15 mM). A culture of Salmonella typhimulium TA1535/pSK1002 in TGA medium at OD600 of 0.12 was added to the mixture to make the final volume to 1.5 ml. The mixture was then incubated at 37° C. for 2 hours with shaking. 200 μl of the culture was used to measure the β-galactosidase activity according to the method of Miller [Experiments in molecular genetics, pp. 352 (1972)].
# [4] = DGE at 2 mg/kg intraperitoneally for 4 days
# [5] = DGE at 20 mg/kg intraperitoneally for 4 days
Compound,carcinostatic activity [1],"NO2− concentration in the medium ([2]; LPS and IFN-γ, 10 μl of 1 mM DGE-GSH per 500 μl well, 16 hours, control 12.1 μM, no addition 4.6 μM) [µM]",antimutagenic activity [3],"30-day survival number [1, 4]","Average days of survival [1, 4] [days]","30-day survival number [1, 5]","Average days of survival [1, 5] [days]","inhibition of NO production, 5 hours pre-culture with DGE compared with 0.5 hour ([2]; DGE added before LPS and IFN-γ)",inhibition of NO production induced by LPS and IFN-γ [2],"antimutagenic activity ([3]; against NQO, DGE final concentration 0.5 mM) [%]","antimutagenic activity ([3]; against mitomycin C, DGE final concentration 0.5 mM) [%]","β-Galactosidase activity ([3]; mutagen Mitomycin C, DGE final concentration 0.03 mM, without DGE 611)","β-Galactosidase activity ([3]; mutagen Mitomycin C, DGE final concentration 0.17 mM, without DGE 611)","β-Galactosidase activity ([3]; mutagen Mitomycin C, DGE final concentration 0.33 mM, without DGE 611)","β-Galactosidase activity ([3]; mutagen Mitomycin C, DGE final concentration 0.5 mM, without DGE 611)","β-Galactosidase activity ([3]; mutagen NQO, DGE final concentration 0.03 mM, without DGE 1437)","β-Galactosidase activity ([3]; mutagen NQO, DGE final concentration 0.17 mM, without DGE 1437)","β-Galactosidase activity ([3]; mutagen NQO, DGE final concentration 0.33 mM, without DGE 1437)","β-Galactosidase activity ([3]; mutagen NQO, DGE final concentration 0.5 mM, without DGE 1437)"
"5-L-glutathion-S-yl-2-hydroxy-3,7-dioxabicyclo[2.2.2]octan-1-ol [DGE-GSH]",also exhibited similar activities,9.4,also exhibited similar activities,–,–,–,–,–,–,–,–,–,–,–,–,–,–,–,–
"O=C1C=CC(CO)OC1O [DGE, L-glycero-1,5-epoxy-1αβ,6-dihydroxy-cis-hex-3-en-2-one]",exhibited a carcinostatic activity,–,–,1,23.7,3,28.0,stronger inhibition of NO production,dose-dependently inhibited NO production; also recorded: exhibited an activity of inhibiting NO production,36,37,590,570,451,383,1376,1212,1038,926
"O=C1C=CC(CO)OC1O [κ-DGE, D-glycero-1,5-epoxy-1αβ,6-dihydroxy-cis-hex-3-en-2-one]",also exhibited similar activities,–,also exhibited similar activities,–,–,–,–,–,exhibited a similar activity,–,–,–,–,–,–,–,–,–,–
